Assay results published in patent US9670521B2, “Amino acid derivatives” (priority 2012, dated 2017).
Read-outs that look alike come from different tables or passages of the source.

Molecular target: T1, pyIRS/tRNA pair (Methanosarcina mazei, UniProt Q8PWY1)
T1 construct: expressed in transfected cells
Type: cell-based
Conditions: for GFP expression / incorporation in the GFP reporter (in words): GFP assay, HEK293 cells expressing pyIRS/tRNApyl and GFPY40, nnAA at 2 mM; for Positive GFP / Positive GFP Assay: HEK293 cells stably expressing pyIRS (3H7), tRNApyl + GFPY40 reporter, nnAA at 2 mM for 2-3 days; for Positive GFP: visual inspection under the microscope; for Positive GFP Assay: Formula VI analogs
Excerpt: An in vitro cell based assay was developed to assess the compatibility of the pyIRS/tRNA pair and the pyrrolysine analogs of the present invention (nnAAs) by and the efficiency of nnAAs integration into a target protein. For this, HEK293 cells stably expressing pyIRS (3H7) were transiently transfected with plasmids for the expression of tRNApyl and a reporter construct encoding GFPY40 (containing amber codon in place of tyrosine at amino acid residue number 40 (where 1 is the initiator methionine)) using standard transfection protocols. Transfected cells were incubated with nnAAs at 2 mM for 2-3 days GFP production was analyzed qualitatively by visual inspection under the microscope. The GFP fluorescence was quantified by flow cytometry using an Accuri flow cytometer and the geometric mean of the fluorescent cells determined.
This cell based assay was used to determine whether the different nnAAs were suitable substrates for the pyIRS and allowed its translation into a target protein. Cells expressing the PyIRS/tRNApyl pair and containing a vector encoding the GFPY40 reporter gene were incubated in the presence of the nnAAs. nnAAs that are readily utilized by the PyIRS/tRNApyl pair support the translation of the nnAA into the amber site of GFP and allow read-through of the gene producing full length GFP (fluorescent protein). The fluorescence intensity of the cells depends on the efficiency of nnAA incorporation. Thus, nnAAs that are poorly utilized produce weakly fluorescent or non-fluorescing cells. […] Furthermore, the relative expression levels in each sample was compared to those generated by substrates known to be efficiently utilized by pyIRS.

T1 sequence (Q8PWY1 whole entry): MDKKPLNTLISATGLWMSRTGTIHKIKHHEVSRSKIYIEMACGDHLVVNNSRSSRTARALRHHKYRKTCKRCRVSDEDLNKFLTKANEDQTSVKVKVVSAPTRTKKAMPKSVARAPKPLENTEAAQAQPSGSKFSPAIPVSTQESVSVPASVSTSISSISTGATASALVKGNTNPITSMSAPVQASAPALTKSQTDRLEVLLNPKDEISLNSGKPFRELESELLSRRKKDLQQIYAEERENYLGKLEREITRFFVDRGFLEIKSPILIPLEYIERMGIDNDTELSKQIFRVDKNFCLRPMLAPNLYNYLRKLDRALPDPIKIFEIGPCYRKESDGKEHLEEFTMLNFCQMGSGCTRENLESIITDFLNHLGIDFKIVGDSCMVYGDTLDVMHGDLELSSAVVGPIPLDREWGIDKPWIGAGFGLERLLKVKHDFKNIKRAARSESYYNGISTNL

SMILES | GFP expression / incorporation in the GFP reporter (in words) | Positive GFP | Positive GFP Assay | GFP expression / incorporation in the GFP reporter (in words) (listed as VI.1)
C#CCOC(=O)NCCCC[C@H](N)C(=O)O [Formula V.2, (2S)-2-amino-6-{[(prop-2-yn-1-yloxy)carbonyl]amino}hexanoic acid] | high levels of GFP expression | Yes |  | 
[N-]=[N+]=NCCOC(=O)NCCCC[C@H](N)C(=O)O [Formula V.1, (2S)-2-amino-6-{[(2-azidoethoxy)carbonyl]amino}hexanoic acid] | high levels of GFP expression | Yes |  | 
C=CCNC(=O)OCCCC[C@H](N)C(=O)O [Formula VI.3, (2S)-2-amino-6-{[(prop-2-en-1-yl)carbamoyl]oxy}hexanoic acid] | yield green cells |  | Yes | 
[N-]=[N+]=NCCNC(=O)OCCCC[C@H](N)C(=O)O [Formula VI.1, (2S)-2-amino-6-{[(2-azidoethyl)carbamoyl]oxy}hexanoic acid] | high levels of GFP expression |  | Yes | yield green cells
C=CCOC(=O)NCCCC[C@H](N)C(=O)O [Formula V.3, (2S)-2-amino-6-{[(prop-2-en-1-yloxy)carbonyl]amino}hexanoic acid] | high levels of GFP expression | Yes |  | 
